Assay results reported in PubChem BioAssay (NCI).
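Cultured in 96-well plates, cells were exposed to test compound for 48 hours across five concentrations. TGI denotes the concentration required for complete inhibition of growth.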

Assays:
Test in all cases: NCI anticancer screen, dose series, 48 h
K-562 leukemia = test system: K-562 leukemia
CAKI-1 renal = test system: CAKI-1 renal
HOP-92 NSCLC = test system: HOP-92 NSCLC
T-47D breast = test system: T-47D breast
SK-MEL-28 melanoma = test system: SK-MEL-28 melanoma
SF-268 CNS = test system: SF-268 CNS
MALME-3M melanoma = test system: MALME-3M melanoma
A549 NSCLC = test system: A549 NSCLC
OVCAR-4 ovarian = test system: OVCAR-4 ovarian
UACC-62 melanoma = test system: UACC-62 melanoma
HS 578T breast = test system: HS 578T breast
NCI/ADR-RES ovarian = test system: NCI/ADR-RES ovarian
SN12C renal = test system: SN12C renal
UACC-257 melanoma = test system: UACC-257 melanoma
OVCAR-5 ovarian = test system: OVCAR-5 ovarian
MOLT-4 leukemia = test system: MOLT-4 leukemia
MCF7 breast = test system: MCF7 breast
OVCAR-3 ovarian = test system: OVCAR-3 ovarian
SK-OV-3 ovarian = test system: SK-OV-3 ovarian
SK-MEL-2 melanoma = test system: SK-MEL-2 melanoma
NCI-H460 lung = test system: NCI-H460 lung
HCT-116 colon = test system: HCT-116 colon
OVCAR-8 ovarian = test system: OVCAR-8 ovarian
COLO 205 colon = test system: COLO 205 colon
HOP-62 NSCLC = test system: HOP-62 NSCLC
PC-3 prostate = test system: PC-3 prostate
DU-145 prostate = test system: DU-145 prostate
HT29 colon = test system: HT29 colon
KM12 colon = test system: KM12 colon
IGROV1 ovarian = test system: IGROV1 ovarian
NCI-H23 lung = test system: NCI-H23 lung
M14 melanoma = test system: M14 melanoma
SK-MEL-5 melanoma = test system: SK-MEL-5 melanoma
HL-60(TB) leukemia = test system: HL-60(TB) leukemia
NCI-H522 lung = test system: NCI-H522 lung
ACHN renal = test system: ACHN renal
BT-549 breast = test system: BT-549 breast
SNB-19 CNS = test system: SNB-19 CNS
HCT-15 colon = test system: HCT-15 colon
UO-31 renal = test system: UO-31 renal
SR leukemia = test system: SR leukemia
SNB-75 CNS = test system: SNB-75 CNS
U251 CNS = test system: U251 CNS
SF-295 CNS = test system: SF-295 CNS
MDA-MB-435 = test system: MDA-MB-435
EKVX NSCLC = test system: EKVX NSCLC
RXF 393 renal = test system: RXF 393 renal
786-0 renal = test system: 786-0 renal
LOX IMVI melanoma = test system: LOX IMVI melanoma
MDA-MB-231 breast = test system: MDA-MB-231 breast
SF-539 CNS = test system: SF-539 CNS
TK-10 renal = test system: TK-10 renal
SW-620 colon = test system: SW-620 colon

Measured: TGI

O=C(CSc1nccc(=O)[nH]1)c1ccccc1
> 100 µM: all assays above
